Test results: the supplement of paper PMC4862054

Assays:
Settings in all cases: incubation time: 72 h
[1] = system: CAL-120; experiment: drug sensitivity score (DSS), CellTox Green (DSS (AUC-based score)); higher = stronger drug effect (viability inhibition or cytotoxicity); extreme values may be limits of the assay
In short: (§1)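 Compound was dispensed into 384-well plates at 5 concentrations in 10-fold steps spanning a 10,000-fold range chosen for each compound, and 20 µl of breast cancer cell suspension was added before 72 h of incubation. CellTox Green fluorescence was read at 485/520 nm, followed by CellTiter-Glo luminescence after 10 min at room temperature. Values on each plate were normalised to 0.1 % DMSO and a positive kill control. The drug sensitivity score came from the area under the fitted dose-response curve.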

[2] = system: CAL-148; experiment: as above
In short: as §1

[3] = system: Hs578T; experiment: as above
In short: as §1

[4] = system: HCC1937; experiment: as above
In short: as §1

[5] = system: HDQ-P1; experiment: as above
In short: as §1

[6] = system: MDA-MB-231; experiment: as above
In short: as §1

[7] = system: MDA-MB-436; experiment: as above
In short: as §1

[8] = system: MDA-MB-453; experiment: as above
In short: as §1

[9] = system: MDA-MB-468; experiment: as above
In short: as §1

[10] = system: CAL-51; experiment: as above
In short: as §1

[11] = system: CAL-85-1; experiment: as above
In short: as §1

[12] = system: HCC1599; experiment: as above
In short: as §1

[13] = system: MCF-10A; experiment: as above
In short: as §1

[14] = system: MFM-223; experiment: as above
In short: as §1

[15] = system: DU-4475; experiment: as above
In short: as §1

[16] = system: HCC1143; experiment: as above
In short: as §1

[17] = system: CAL-120; experiment: normalised response (% of control), CellTox Green; higher = less cell death (100 = DMSO, 0 = benzethonium chloride kill control)
In short: (§2)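 Breast cancer cell lines were exposed for 72 h in 384-well plates to compound at 5 concentrations, 10-fold apart, covering a 10,000-fold range fixed for each compound. Plates were read for CellTox Green fluorescence and CellTiter-Glo luminescence and normalised to 0.1 % DMSO (100) and a positive kill control (0). Each value is the normalised signal at one concentration of the series.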

[18] = system: CAL-148; experiment: as above
In short: as §2

[19] = system: HCC1937; experiment: as above
In short: as §2

[20] = system: HDQ-P1; experiment: as above
In short: as §2

[21] = system: MDA-MB-231; experiment: as above
In short: as §2

[22] = system: BT-474; experiment: as above
In short: as §2

[23] = system: CAL-51; experiment: as above
In short: as §2

[24] = system: CAL-85-1; experiment: as above
In short: as §2

[25] = system: HCC1599; experiment: as above
In short: as §2

[26] = system: MFM-223; experiment: as above
In short: as §2

[27] = system: HCC1143; experiment: as above
In short: as §2

## CCn1c(-c2nonc2N)nc2cnc(Oc3cccc(NC(=O)c4ccc(OCCN5CCOCC5)cc4)c3)cc21
[1]
  drug sensitivity score: 0
[2]
  drug sensitivity score: 0
[3]
  drug sensitivity score: 0
[4]
  drug sensitivity score: 0
[5]
  drug sensitivity score: 0
[6]
  drug sensitivity score: 4.85
[7]
  drug sensitivity score: 0
[8]
  drug sensitivity score: 0
[9]
  drug sensitivity score: 0.303
[10]
  drug sensitivity score: 11.2
[11]
  drug sensitivity score: 0
[12]
  drug sensitivity score: 0
[13]
  drug sensitivity score: 0
[14]
  drug sensitivity score: 0
[15]
  drug sensitivity score: 0

## COc1cc(OC2CCN(C)CC2)ccc1Nc1ncc2c(n1)n(C1CCCC1)c(=O)n2C [AZ 3146]
[1]
  drug sensitivity score: 0
[2]
  drug sensitivity score: 0
[3]
  drug sensitivity score: 0
[5]
  drug sensitivity score: 0
[6]
  drug sensitivity score: 0
[7]
  drug sensitivity score: 4.7
[8]
  drug sensitivity score: 0
[9]
  drug sensitivity score: 0
[10]
  drug sensitivity score: 9.75
[11]
  drug sensitivity score: 0
[12]
  drug sensitivity score: 2.26
[13]
  drug sensitivity score: 0
[14]
  drug sensitivity score: 0
[16]
  drug sensitivity score: 0
[15]
  drug sensitivity score: 0

## O=P1(N(CCCl)CCCl)NCCCO1 (configuration not stated) [Cyclophosphamide]
[1]
  drug sensitivity score: 0
[2]
  drug sensitivity score: 0
[4]
  drug sensitivity score: 0
[5]
  drug sensitivity score: 0
[6]
  drug sensitivity score: 0
[7]
  drug sensitivity score: 0
[8]
  drug sensitivity score: 0
[10]
  drug sensitivity score: 0
[11]
  drug sensitivity score: 0
[12]
  drug sensitivity score: 0
[13]
  drug sensitivity score: 0
[14]
  drug sensitivity score: 0
[16]
  drug sensitivity score: 0
[15]
  drug sensitivity score: 0

## NC(=O)c1ccc(I)c([N+](=O)[O-])c1 [Iniparib]
[1]
  drug sensitivity score: 0.0859
[2]
  drug sensitivity score: 0
[4]
  drug sensitivity score: 0
[5]
  drug sensitivity score: 1.99
[6]
  drug sensitivity score: 0
[7]
  drug sensitivity score: 0
[8]
  drug sensitivity score: 0
[9]
  drug sensitivity score: 0
[10]
  drug sensitivity score: 0.811
[11]
  drug sensitivity score: 0
[12]
  drug sensitivity score: 0
[13]
  drug sensitivity score: 1.4
[14]
  drug sensitivity score: 0
[16]
  drug sensitivity score: 1.54
[15]
  drug sensitivity score: 0

## Cc1ccc(NC(=O)c2ccc(CN3CCN(C)CC3)cc2)cc1Nc1nc(-c2cccnc2)cs1 [Masitinib]
[1]
  drug sensitivity score: 0
[2]
  drug sensitivity score: 0
[3]
  drug sensitivity score: 1.55
[4]
  drug sensitivity score: 0
[5]
  drug sensitivity score: 0
[6]
  drug sensitivity score: 5.53
[8]
  drug sensitivity score: 0
[9]
  drug sensitivity score: 1.39
[10]
  drug sensitivity score: 0
[11]
  drug sensitivity score: 0
[12]
  drug sensitivity score: 0.597
[13]
  drug sensitivity score: 0
[14]
  drug sensitivity score: 0
[16]
  drug sensitivity score: 0
[15]
  drug sensitivity score: 0

## O=C(Nc1cccnc1)N1CCC(Cc2cccc(Oc3ccc(C(F)(F)F)cn3)c2)CC1 [PF-3845]
[1]
  drug sensitivity score: 0
[2]
  drug sensitivity score: 0
[3]
  drug sensitivity score: 0
[4]
  drug sensitivity score: 0
[6]
  drug sensitivity score: 0
[7]
  drug sensitivity score: 0
[8]
  drug sensitivity score: 0
[9]
  drug sensitivity score: 0
[10]
  drug sensitivity score: 0
[11]
  drug sensitivity score: 0
[12]
  drug sensitivity score: 0
[13]
  drug sensitivity score: 0
[14]
  drug sensitivity score: 0
[16]
  drug sensitivity score: 0
[15]
  drug sensitivity score: 0

## O=C(Nc1cccnc1)N1CCC(Cc2cccc(Oc3ccc(C(F)(F)F)cn3)c2)CC1 [PF-3845] (10000 nM)
[17]
  normalised response: 97.4%
[18]
  normalised response: 103%
[19]
  normalised response: 76.2%
[20]
  normalised response: 52.3%
[21]
  normalised response: 108%
[22]
  normalised response: 76.7%
[23]
  normalised response: 108%
[24]
  normalised response: 69.5%
[25]
  normalised response: 95.7%
[26]
  normalised response: 78.1%
[27]
  normalised response: 126%

## Cc1[nH]c2ccccc2c1CCNCc1ccc(/C=C/C(=O)NO)cc1 [Panobinostat] (100 nM)
[17]
  normalised response: 28.7%
[18]
  normalised response: -4.89%
[19]
  normalised response: -55.9%
[20]
  normalised response: 90%
[21]
  normalised response: -11.6%
[22]
  normalised response: 36.8%
[23]
  normalised response: -3.76%
[24]
  normalised response: 10.4%
[25]
  normalised response: 75%
[26]
  normalised response: 71.4%
[27]
  normalised response: 71.8%

## Cc1[nH]c2ccccc2c1CCNCc1ccc(/C=C/C(=O)NO)cc1 [Panobinostat] (1000 nM)
[17]
  normalised response: -30.8%
[18]
  normalised response: 4.38%
[19]
  normalised response: -17.6%
[20]
  normalised response: 39.2%
[21]
  normalised response: -36.7%
[22]
  normalised response: 19.9%
[23]
  normalised response: -9.56%
[24]
  normalised response: -26%
[25]
  normalised response: 53.1%
[26]
  normalised response: 32.5%
[27]
  normalised response: 47.3%

## COCC1(CO)C(=O)C2CCN1CC2 (configuration not stated) [Prima-1 Met]
[1]
  drug sensitivity score: 0
[2]
  drug sensitivity score: 0
[3]
  drug sensitivity score: 0
[4]
  drug sensitivity score: 1.24
[5]
  drug sensitivity score: 0
[6]
  drug sensitivity score: 0
[8]
  drug sensitivity score: 0
[9]
  drug sensitivity score: 0
[10]
  drug sensitivity score: 0
[11]
  drug sensitivity score: 0
[12]
  drug sensitivity score: 0
[13]
  drug sensitivity score: 0
[14]
  drug sensitivity score: 0
[16]
  drug sensitivity score: 0
[15]
  drug sensitivity score: 0
